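Five compound concentrations were applied to cells in 96-well plates for 48 hours; endpoints were derived by simple linear interpolation of the resulting dose-response curve. Abbreviation: GI50, concentration required for 50% inhibition of growth.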 Active and inactive are the calls of the source. Cut-off read from the data, not from the text of the source: active = GI50 up to about 1.1 µM and inactive = higher.
Experiments:
Assay in all cases: NCI anticancer screen, dose series, 48 h
[1] = system: SK-MEL-5
[2] = system: BT-549
[3] = system: PC-3
[4] = system: COLO 205
[5] = system: OVCAR-8
[6] = system: MDA-N
[7] = system: ACHN
[8] = system: IGROV-1
[9] = system: UACC-62
[10] = system: SR
[11] = system: UO-31
[12] = system: HCT-116
[13] = system: NCI/ADR-RES
[14] = system: NCI-H522
[15] = system: SNB-75
[16] = system: KM12
[17] = system: NCI-H23
[18] = system: OVCAR-3
[19] = system: U-251
[20] = system: DU-145
[21] = system: SK-MEL-28
[22] = system: SK-MEL-2
[23] = system: RPMI-8226
[24] = system: Hs-578T
[25] = system: HCC 2998
[26] = system: 786-0
[27] = system: K562
[28] = system: A549
[29] = system: HT-29
[30] = system: MCF7
[31] = system: OVCAR-5
[32] = system: SF-539
[33] = system: SNB-19
[34] = system: LOX IMVI
[35] = system: SN12C
[36] = system: NCI-H226
[37] = system: Malme-3M
[38] = system: OVCAR-4
[39] = system: TK-10
[40] = system: RXF 393
[41] = system: MOLT-4
[42] = system: SK-OV-3
[43] = system: UACC-257
[44] = system: CCRF-CEM
[45] = system: SW-620
[46] = system: HOP-62
[47] = system: SF-295
[48] = system: MDA-MB-435
[49] = system: SF-268
[50] = system: M14
[51] = system: MDA-MB-231
[52] = system: NCI-H460
[53] = system: EKVX
[54] = system: T47D
[55] = system: CAKI-1
[56] = system: HOP-92
[57] = system: HCT-15
[58] = system: HL-60
[59] = system: A498

Measured: GI50

COc1ccc(C(C#N)NC23CC4CC(CC(C4)C2)C3)cc1OC (stereo not drawn)
> 100 µM: [57]
inactive: [1] > 100 µM | [2] > 100 µM | [3] > 100 µM | [4] > 100 µM | [5] > 100 µM | [6] > 100 µM | [7] > 100 µM | [8] > 100 µM | [9] > 100 µM | [10] > 100 µM | [11] 84.3 µM | [12] > 100 µM | [13] > 100 µM | [14] > 100 µM | [15] > 100 µM | [16] > 100 µM | [17] > 100 µM | [18] > 100 µM | [19] > 100 µM | [20] > 100 µM | [21] > 100 µM | [22] > 100 µM | [23] > 100 µM | [24] > 100 µM | [25] > 100 µM | [26] > 100 µM | [27] > 100 µM | [28] > 100 µM | [29] > 100 µM | [30] > 100 µM | [31] > 100 µM | [32] > 100 µM | [33] > 100 µM | [34] > 100 µM | [35] > 100 µM | [36] 79.4 µM | [37] > 100 µM | [38] > 100 µM | [39] > 100 µM | [40] > 100 µM | [41] > 100 µM | [42] > 100 µM | [43] > 100 µM | [44] > 100 µM | [45] > 100 µM | [46] > 100 µM | [47] > 100 µM | [48] > 100 µM | [49] > 100 µM | [50] > 100 µM | [51] > 100 µM | [52] > 100 µM | [53] > 100 µM | [54] > 100 µM | [55] > 100 µM | [56] 96.8 µM | [58] > 100 µM

CC(=O)c1c(=O)n(-c2ccc(C)cc2)c(O)c2c(N)n[nH]c12
> 100 µM: [57]
inactive: [1] > 100 µM | [2] > 100 µM | [3] > 100 µM | [4] > 100 µM | [5] > 100 µM | [6] > 100 µM | [8] > 100 µM | [9] > 100 µM | [10] > 100 µM | [11] 60 µM | [12] > 100 µM | [13] > 100 µM | [14] > 100 µM | [15] > 100 µM | [16] > 100 µM | [17] > 100 µM | [18] > 100 µM | [19] > 100 µM | [20] > 100 µM | [21] > 100 µM | [22] > 100 µM | [23] > 100 µM | [24] > 100 µM | [25] > 100 µM | [26] > 100 µM | [27] > 100 µM | [28] > 100 µM | [29] > 100 µM | [30] > 100 µM | [31] > 100 µM | [32] > 100 µM | [33] > 100 µM | [34] > 100 µM | [35] > 100 µM | [36] > 100 µM | [37] > 100 µM | [38] > 100 µM | [39] > 100 µM | [40] > 100 µM | [41] > 100 µM | [42] > 100 µM | [43] > 100 µM | [44] > 100 µM | [45] > 100 µM | [48] > 100 µM | [49] > 100 µM | [50] > 100 µM | [59] > 100 µM | [51] > 100 µM | [52] > 100 µM | [53] > 100 µM | [54] > 100 µM | [55] > 100 µM | [58] > 100 µM

CCOC(=O)c1nc2cc(F)cc(F)c2[nH]c1=O
> 100 µM: [57]
inactive: [1] > 100 µM | [2] > 100 µM | [3] > 100 µM | [4] > 100 µM | [5] > 100 µM | [6] > 100 µM | [7] > 100 µM | [8] > 100 µM | [9] > 100 µM | [10] > 100 µM | [11] 72.8 µM | [12] > 100 µM | [13] > 100 µM | [15] > 100 µM | [16] > 100 µM | [17] > 100 µM | [18] > 100 µM | [19] > 100 µM | [20] > 100 µM | [21] > 100 µM | [22] > 100 µM | [23] > 100 µM | [24] > 100 µM | [25] > 100 µM | [26] > 100 µM | [27] > 100 µM | [28] > 100 µM | [29] > 100 µM | [30] > 100 µM | [31] > 100 µM | [32] > 100 µM | [33] > 100 µM | [34] > 100 µM | [35] > 100 µM | [36] > 100 µM | [38] > 100 µM | [39] > 100 µM | [41] > 100 µM | [42] > 100 µM | [43] > 100 µM | [44] > 100 µM | [45] > 100 µM | [46] > 100 µM | [47] > 100 µM | [48] > 100 µM | [49] > 100 µM | [50] > 100 µM | [59] > 100 µM | [51] > 100 µM | [52] > 100 µM | [54] > 100 µM | [55] > 100 µM | [56] > 100 µM | [58] > 100 µM

Source: ChEMBL document CHEMBL1201862, “PubChem BioAssay data set” (2004)
